Test results as given in article PMC13183915, “A platinum butterfly effect: small changes turn an anticancer drug into a non-toxic metalloantibiotic with in vivo efficacy” (npj Antimicrobials and Resistance, 2026).
Values joined by “and” are separate entries in the source; they are usually repeats but may differ in a detail not shown here. Equal values may be shown once.

Tests used:
B. subtilis 168CA [1] = test: Optimal stressor concentration, acute shock growth curves; format: cell-based, Bacillus subtilis; conditions: after compound addition
Protocol: To establish a starting concentration for the OSC assay, MICs against parent strain 168CA were determined under conditions equivalent to those used for mode of action assays. […] MICs were used as basis for OSC determination. To this end, growth curves were recorded using optical density (OD) measurements. Culture volumes of 20 mL were grown until reaching an OD600 of 0.3. Subsequently, the parent culture was split into 2 ml aliquots, followed by addition of different MIC multiples of Pt compounds[71]. An untreated culture served as control. Growth was followed until cultures reached the stationary phase. A concentration achieving 50–70% growth inhibition in exponential phase was selected as optimal stressor concentration. […] As controls, 0.23 µM nisin, 0.53 µM µM gramicidin, 100 µM CCCP, 0.67 µM vancomycin, 1.2 µM rifampicin, and 323.12 µM chloramphenicol were included as controls for specific assays as appropriate.

[2] = system: RecA-GFP (B. subtilis UG10); test: Localization of RecA-GFP (DNA damage reporter); format: cell-based, Bacillus subtilis; conditions: Pt1 3.125 µM, Pt8 25 µM, CisPt 100 µM; strongest after 10 min
Protocol: To confirm whether the compounds induce DNA damage in bacterial cells, the localization of RecA was assessed. RecA is part of the bacterial SOS response to DNA damage. It is a DNA-associated protein that recognizes single-stranded DNA, which occurs as a consequence of strand breaks. If strand breaks are present, RecA accumulates at the damaged sites, appearing as foci or elongated structures. Since the RecA response is strongest shortly after stress induction, we additionally examined a 10 min timepoint in this assay.
B. subtilis strains were grown in LB containing appropriate inducer concentrations as specified in Table S10. After reaching an OD600 of 0.3, cultures were split and treated with antibiotics. Samples were withdrawn after 30 and 60 min of treatment, spotted on glass slides covered with 1% agarose films, and immediately imaged.

MRSA NRS 194 = test: Broth microdilution MIC, MRSA NRS 194; format: cell-based, S. aureus; conditions: MRSA NRS 194
Protocol: (§1) The data is given in supporting information (Table S5). Before starting the experiment, a single colony was picked from MHA plate, inoculated in MHBII and incubated overnight at 37 °C with shaking for 18–24 h to get the starter culture. Antibiotic susceptibility testing was conducted according to the CLSI (Clinical & Laboratory Standards Institute) guidelines using the broth microdilution assay. 10 mg/mL stock solutions of test compounds were prepared in DMSO. Bacterial cultures were inoculated in MHBII and optical density (OD) was measured at 600 nm, followed by dilution to achieve ~10^6 CFU/mL. The compounds were tested from 64 to 0.5 mg/L in two-fold serial diluted fashion with 2.5 μL of each concentration added to well of a 96-well round bottom microtiter plate. Later, 97.5 μL of bacterial suspension was added to each well containing either test compound or appropriate controls. […] The MIC is defined as the lowest concentration of the compound at which there is absence of visible growth. For each test compound, MIC determinations were carried out independently three times using duplicate samples.

VRSA VRS 4 = test: Broth microdilution MIC, VRSA VRS 4; format: cell-based, S. aureus; conditions: VRSA VRS 4
Protocol: as §1

B. subtilis 168CA [3] = test: MIC against B. subtilis 168CA (mode of action conditions); format: cell-based, Bacillus subtilis; conditions: 16 h
Protocol: To establish a starting concentration for the OSC assay, MICs against parent strain 168CA were determined under conditions equivalent to those used for mode of action assays. MICs were determined according to the Clinical Laboratory Standardization Institute (CLSI) in a serial microdilution assay. […] Cultures were incubated for 16 h at 37 °C under constant agitation. MICs were used as basis for OSC determination. To this end, growth curves were recorded using optical density (OD) measurements. Culture volumes of 20 mL were grown until reaching an OD600 of 0.3. […] An untreated culture served as control. Growth was followed until cultures reached the stationary phase. A concentration achieving 50–70% growth inhibition in exponential phase was selected as optimal stressor concentration.

A. baumanii BAA 1605 = test: Broth microdilution MIC, A. baumannii BAA 1605; format: cell-based, Acinetobacter baumannii
Protocol: as §1

Q: C1=C\CC/C=C\CC/1.[Cl][Pt][Cl] [Pt1] was tested. Which “delay until the onset of growth inhibition” value (B. subtilis 168CA [1]) did it give?
A: ~ 30 min

Q: And the “RecA accumulation on nucleoids” value [2]?
A: clear RecA accumulations

Q: What about the MIC (MRSA NRS 194) of the same compound?
A: 0.125 – 0.25 µg/mL and 0.33–0.67 µM

Q: What about the MIC (VRSA VRS 4) of the same compound?
A: 0.67 to 1.34 µM

Q: And the MIC (B. subtilis 168CA [3])?
A: 6.25 µM

Q: And the MIC (A. baumanii BAA 1605)?
A: > 64 µg/mL
